PubChem BioAssay AID504508 (Sanford-Burnham Center for Chemical Genomics, 2011)

The molecules below were run on 697 B-cell NF-kB luciferase reporter, PMA/ionomycin, 16 h (assay: inhibitors of antigen receptor-driven NF-kB signaling, SAR follow-up, B-cell specific, 697 cells, luminescence, set 2 (AID 504508)).

IC50, active:
CCOc1ccc(-c2nc(CSCC(=O)O)c(C)o2)cc1 50 nM
CC(C)c1ccc(-c2noc(CCC(=O)NC3CC3)n2)cc1 250 nM
CCCOc1ccc(-c2nc(CSCC(=O)NC3CC3)c(C)o2)cc1 90 nM
CCCOc1ccc(-c2nc(CSCC(=O)O)c(C)o2)cc1 40 nM
CCCCc1ccc(-c2noc(CCC(=O)NC)n2)cc1 110 nM
CCCCc1ccc(-c2noc(CCC(=O)NCC)n2)cc1 130 nM
C#CCNC(=O)CSCc1nc(-c2ccc(OCC)cc2)oc1C 60 nM
Cc1oc(-c2ccc(OC(F)(F)F)cc2)nc1CSCC(=O)O 190 nM
CCOc1ccc(-c2nc(CSCC(N)=O)c(C)o2)cc1 80 nM
CCCCOc1ccc(-c2nc(CSCC(=O)O)c(C)o2)cc1 80 nM
CCCOc1ccc(-c2nc(CSCC(=O)NCc3ccco3)c(C)o2)cc1 90 nM
